Reference: ChEMBL document CHEMBL1125588, “Quinazoline antifolate thymidylate synthase inhibitors: bridge modifications and conformationally restricted analogues in the C2-methyl series” (J Med Chem, 1991)

Legend:
L1210 [1] = assay: Tested for the concentration to inhibit 50% of L1210 cell growth in culture.; assay type: functional, cell-based; conditions: Mus musculus
L1210 [2] = assay: Tested for inhibition of L1210 cell growth in presence of dThd and expressed as % of control.; assay type: functional, Mus musculus; design: concentration or dose not given beside the values
Thymidylate synthase = Thymidylate synthase (Mus musculus, UniProt P07607); assay: In vitro inhibition against L1210 thymidylate synthase (TS)
L1210 [3] = assay: Compound was tested for the concentration to inhibit 50% of L1210:1565 cell growth.; assay type: functional, cell-based; conditions: Mus musculus
[4] = Ratio of IC50 of L1210:1565 cells to that of IC50 of L1210 cells; assay type: functional

Chain of Thymidylate synthase (P07607 whole entry): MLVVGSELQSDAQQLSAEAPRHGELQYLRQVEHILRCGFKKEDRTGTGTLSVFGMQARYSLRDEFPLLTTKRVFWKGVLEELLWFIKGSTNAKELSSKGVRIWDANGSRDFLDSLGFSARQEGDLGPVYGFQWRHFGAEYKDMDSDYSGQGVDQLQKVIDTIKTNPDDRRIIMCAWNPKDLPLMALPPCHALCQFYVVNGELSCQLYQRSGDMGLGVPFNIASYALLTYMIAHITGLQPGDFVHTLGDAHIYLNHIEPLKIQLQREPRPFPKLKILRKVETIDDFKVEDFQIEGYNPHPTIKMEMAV

SMILES	IC50 (L1210 [1]) [nM]	Control (L1210 [2]) [%]	IC50 (Thymidylate synthase) [nM]	IC50 (L1210 [3]) [nM]	Ratio [4]
Cc1nc(O)c2cc(COc3ccc(C(=O)N[C@@H](CCC(=O)O)C(=O)O)cc3)ccc2n1	40	75	21500		
Cc1nc(O)c2cc(CNc3ccc4c(c3)CN([C@@H](CCC(=O)O)C(=O)O)C4=O)ccc2n1	3000		8270		
Cc1nc(O)c2cc(CN(C)c3ccc4c(c3)CN([C@@H](CCC(=O)O)C(=O)O)C4=O)ccc2n1	1300	90	720		
C#CCN(Cc1ccc(C(=O)N[C@@H](CCC(=O)O)C(=O)O)cc1)c1ccc2nc(C)nc(O)c2c1	2400	89			
Cc1nc(O)c2cc(NCc3ccc(C(=O)N[C@@H](CCC(=O)O)C(=O)O)cn3)ccc2n1	60		16700		
Cc1nc2ccc(CN(C)c3ccc(C(=O)N[C@@H](CCC(=O)O)C(=O)O)cc3)cc2c(=O)[nH]1				4200	38
CCN(Cc1ccc(C(=O)N[C@@H](CCC(=O)O)C(=O)O)s1)c1ccc2nc(C)nc(O)c2c1	660	94	8420		
Cc1nc2ccc(CNc3ccc(C(=O)N[C@@H](CCC(=O)O)C(=O)O)s3)cc2c(=O)[nH]1	3000		24800		
Cc1nc(O)c2cc(N(C)C(C)c3ccc(C(=O)N[C@@H](CCC(=O)O)C(=O)O)cc3)ccc2n1 (stereo not given in full)	350		1070		
Cc1nc(O)c2cc(N(CCO)Cc3ccc(C(=O)N[C@@H](CCC(=O)O)C(=O)O)s3)ccc2n1	6200	91	13300		
Cc1nc(O)c2cc(NCc3ccc(C(=O)N[C@@H](CCC(=O)O)C(=O)O)cc3)ccc2n1	70	93	8280		
Cc1nc(O)c2cc(NCc3ccc(C(=O)N[C@@H](CCC(=O)O)C(=O)O)cc3F)ccc2n1	53	94	6730		
Cc1nc(O)c2cc(Cn3ccc4cc(C(=O)N[C@@H](CCC(=O)O)C(=O)O)ccc43)ccc2n1	36	90	3270		
C=CCN(Cc1ccc(C(=O)N[C@@H](CCC(=O)O)C(=O)O)s1)c1ccc2nc(C)nc(O)c2c1	540	95	14100		
Cc1nc(O)c2cc(N(C)Cc3ccc(C(=O)N[C@@H](CCC(=O)O)C(=O)O)s3)ccc2n1	300		3820	2100	7
Cc1nc(O)c2cc(NCc3ccc(C(=O)N[C@@H](CCC(=O)O)C(=O)O)s3)ccc2n1	26	88	6980		
Cc1nc(O)c2cc(Sc3ccc(C(=O)N[C@@H](CCC(=O)O)C(=O)O)cc3)ccc2n1	> 20000		10300		
Cc1nc(O)c2cc(CSc3ccc(C(=O)N[C@@H](CCC(=O)O)C(=O)O)cc3)ccc2n1	420	99	4660		
C#CCN(Cc1ccc2nc(C)nc(O)c2c1)c1ccc2c(c1)CN([C@@H](CCC(=O)O)C(=O)O)C2=O	170	96	150		
Cc1nc(O)c2cc(N(C)Cc3ccc(C(=O)N[C@@H](CCC(=O)O)C(=O)O)cc3)ccc2n1	700	93	2620	7700	11
Cc1nc(O)c2cc(NC(C)c3ccc(C(=O)N[C@@H](CCC(=O)O)C(=O)O)cc3)ccc2n1 (stereo not given in full)	800	93	4300		
Cc1nc(O)c2cc(N(CCF)Cc3ccc(C(=O)N[C@@H](CCC(=O)O)C(=O)O)s3)ccc2n1	380	95	9900		
Cc1nc(=O)c2cc(CN(C)c3ccc(C(=O)N[C@@H](CCC(=O)O)C(=O)O)s3)ccc2[nH]1 [RALTITREXED]	7			960	137
